Several values for one entry are separate records, joined by “and”; a condition that tells them apart may be missing. Equal values may be shown once. Inconclusive results and toxic doses are left out. No stated cut-off is given here; in the data, active means T/C of 150% or more; inactive means T/C below 125%.
Test system: L1210 leukemia ip in BDF1 mice, survival T/C
Experiment: NCI In Vivo Anticancer Drug Screen. Data for tumor model L1210 Leukemia (intraperitoneal) in B6D2F1 (BDF1) mice
Conditions: endpoint: mean survival time, higher = longer survival
Outline: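 Value reflects the ratio of survival in compound-treated mice to survival in vehicle-treated controls, with both groups carrying the same transplanted tumor.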

[1] = dose: 25.0 mg/kg/injection, schedule: Q04DX002 (ip), vehicle: saline with Tween-80
[2] = dose: 50.0 mg/kg/injection, schedule: Q01DX009 (ip), vehicle: saline
[3] = dose: 100.0 mg/kg/injection, schedule: Q04DX002 (ip), vehicle: Klucel (hydroxypropylcellulose) (HPC)
[4] = dose: 200.0 mg/kg/injection, schedule: Q04DX002 (ip), vehicle: Klucel (hydroxypropylcellulose) (HPC)
[5] = dose: 100.0 mg/kg/injection, schedule: Q04DX003 (ip), vehicle: saline with Tween-80
[6] = dose: 200.0 mg/kg/injection, schedule: Q04DX003 (ip), vehicle: saline with Tween-80
[7] = dose: 400.0 mg/kg/injection, schedule: Q04DX003 (ip), vehicle: saline with Tween-80
[8] = dose: 50.0 mg/kg/injection, schedule: Q01DX001 (ip), vehicle: saline
[9] = dose: 50.0 mg/kg/injection, schedule: Q01DX009 (ip), vehicle: Klucel (hydroxypropylcellulose) (HPC)
[10] = dose: 100.0 mg/kg/injection, schedule: Q01DX001 (ip), vehicle: Klucel (hydroxypropylcellulose) (HPC)
[11] = dose: 100.0 mg/kg/injection, schedule: Q04DX003 (ip), vehicle: Klucel (hydroxypropylcellulose) (HPC)
[12] = dose: 5.0 mg/kg/injection, schedule: Q01DX001 (ip), vehicle: saline
[13] = dose: 100.0 mg/kg/injection, schedule: Q01DX001 (ip), vehicle: saline
[14] = dose: 200.0 mg/kg/injection, schedule: Q01DX001 (ip), vehicle: saline
[15] = dose: 400.0 mg/kg/injection, schedule: Q01DX001 (ip), vehicle: saline
[16] = dose: 100.0 mg/kg/injection, schedule: Q01DX009 (ip), vehicle: Klucel (hydroxypropylcellulose) (HPC)
[17] = dose: 200.0 mg/kg/injection, schedule: Q01DX009 (ip), vehicle: Klucel (hydroxypropylcellulose) (HPC)
[18] = dose: 200.0 mg/kg/injection, schedule: Q04DX003 (ip), vehicle: Klucel (hydroxypropylcellulose) (HPC)

Measured: T/C

CCCCN(CCCC)CC(O)c1ccccc1 (stereo not given)
inactive: dose: 25.0 mg/kg/injection, schedule: Q01DX005 (ip), vehicle: saline 112 % of control | dose: 25.0 mg/kg/injection, schedule: Q01DX009 (ip), vehicle: saline 95 % of control | [1] 102 % of control | dose: 50.0 mg/kg/injection, schedule: Q01DX005 (ip), vehicle: saline 108 % of control | [2] 107 % of control | dose: 50.0 mg/kg/injection, schedule: Q04DX002 (ip), vehicle: saline with Tween-80 106 % of control | dose: 100.0 mg/kg/injection, schedule: Q01DX005 (ip), vehicle: saline 101 % of control | dose: 100.0 mg/kg/injection, schedule: Q04DX002 (ip), vehicle: saline with Tween-80 93 % of control

C=CS(=O)(=O)c1ccc(C)cc1
inactive: dose: 25.0 mg/kg/injection, schedule: Q04DX002 (ip), vehicle: Klucel (hydroxypropylcellulose) (HPC) 104 % of control | dose: 50.0 mg/kg/injection, schedule: Q04DX002 (ip), vehicle: Klucel (hydroxypropylcellulose) (HPC) 110 % of control | [3] 96 % of control and 104 % of control

Cc1ccc(NC(=O)COc2ccccc2)c(C)c1
inactive: [3] 107 % of control | [4] 104 % of control | dose: 400.0 mg/kg/injection, schedule: Q04DX002 (ip), vehicle: Klucel (hydroxypropylcellulose) (HPC) 100 % of control

CC(NC(=O)OCc1ccccc1)C(=O)NC(Cc1ccc(O)cc1)C(=O)OCc1ccccc1 (stereo not given)
inactive: [5] 97 % of control | [6] 90 % of control | [7] 93 % of control

O=C(O)c1ccc(N=Cc2ccc(N(CCCl)CCCl)cc2)cc1O
inactive: dose: 100.0 mg/kg/injection, schedule: Q01DX001 (ip), vehicle: carboxymethylcellulose (CMC) 95 % of control | dose: 200.0 mg/kg/injection, schedule: Q01DX001 (ip), vehicle: carboxymethylcellulose (CMC) 101 % of control

CCCCc1cccc(N2C(N)=NC(N)=NC2(C)C)c1
inactive: dose: 12.5 mg/kg/injection, schedule: Q01DX001 (ip), vehicle: saline 103 % of control | [8] 89 % of control

CNC(=O)Oc1ccccc1C(=O)NCO
inactive: dose: 50.0 mg/kg/injection, schedule: Q01DX001 (ip), vehicle: Klucel (hydroxypropylcellulose) (HPC) 97 % of control | [9] 101 % of control and 107 % of control | dose: 50.0 mg/kg/injection, schedule: Q04DX003 (ip), vehicle: Klucel (hydroxypropylcellulose) (HPC) 97 % of control | [10] 101 % of control | [3] 94 % of control and 101 % of control | [11] 106 % of control | [4] 98 % of control

CCCCCCCCCCCC[n+]1cccc(C)c1
inactive: [12] 94 % of control

COc1ccc(C(CCCC(=O)O)c2ccc(OC)cc2)cc1
inactive: [13] 112 % of control | [14] 104 % of control | [15] 104 % of control

C[n+]1ccc2ccccc2c1CCCc1nccc2ccccc12
inactive: dose: 6.25 mg/kg/injection, schedule: Q01DX009 (ip), vehicle: saline with Tween-80 111 % of control | dose: 6.25 mg/kg/injection, schedule: Q04DX003 (ip), vehicle: saline 97 % of control | dose: 12.5 mg/kg/injection, schedule: Q01DX009 (ip), vehicle: saline with Tween-80 117 % of control | dose: 12.5 mg/kg/injection, schedule: Q04DX003 (ip), vehicle: saline 100 % of control | dose: 25.0 mg/kg/injection, schedule: Q01DX009 (ip), vehicle: saline with Tween-80 112 % of control | dose: 25.0 mg/kg/injection, schedule: Q04DX003 (ip), vehicle: saline 114 % of control

c1ccc(C[As+](c2ccccc2)(c2ccccc2)c2ccccc2)cc1
inactive: [12] 101 % of control | dose: 6.25 mg/kg/injection, schedule: Q04DX002 (ip), vehicle: saline with Tween-80 97 % of control | dose: 10.0 mg/kg/injection, schedule: Q01DX001 (ip), vehicle: saline 90 % of control | dose: 12.5 mg/kg/injection, schedule: Q04DX002 (ip), vehicle: saline with Tween-80 86 % of control | dose: 20.0 mg/kg/injection, schedule: Q01DX001 (ip), vehicle: saline 93 % of control | [1] 101 % of control | dose: 40.0 mg/kg/injection, schedule: Q01DX001 (ip), vehicle: saline 109 % of control

CS\C(N)=N/N=C/C(C)=N/N=C(/N)SC
inactive: dose: 15.0 mg/kg/injection, schedule: Q01DX Z (ip), vehicle: saline 98 % of control | dose: 30.0 mg/kg/injection, schedule: Q01DX Z (ip), vehicle: saline 100 % of control | dose: 60.0 mg/kg/injection, schedule: Q01DX Z (ip), vehicle: saline 100 % of control and 105 % of control | dose: 120.0 mg/kg/injection, schedule: Q01DX Z (ip), vehicle: saline 100 % of control and 105 % of control | dose: 240.0 mg/kg/injection, schedule: Q01DX Z (ip), vehicle: saline 100 % of control | dose: 480.0 mg/kg/injection, schedule: Q01DX Z (ip), vehicle: saline 105 % of control

Cc1c(C/C(=N/O)C(=O)O)[nH]c(=S)[nH]c1=O
inactive: [5] 103 % of control | [6] 96 % of control | [7] 102 % of control

Cc1ccc(S(=O)(=O)OCC2CO2)c(C)c1 (stereo not given)
inactive: dose: 50.0 mg/kg/injection, schedule: Q01DX007 (ip), vehicle: saline with Tween-80 106 % of control | dose: 100.0 mg/kg/injection, schedule: Q01DX007 (ip), vehicle: saline with Tween-80 103 % of control | dose: 200.0 mg/kg/injection, schedule: Q01DX007 (ip), vehicle: saline with Tween-80 94 % of control

O=[N+]([O-])c1cccc(C=Nc2cccc(C(F)(F)F)c2)c1
inactive: [16] 109 % of control | [11] 110 % of control | [17] 98 % of control | [18] 110 % of control | dose: 400.0 mg/kg/injection, schedule: Q04DX003 (ip), vehicle: Klucel (hydroxypropylcellulose) (HPC) 101 % of control

CC(=O)OC(C)CC1CCCCC12OCCO2 (stereo not given)
inactive: [8] 103 % of control | [13] 108 % of control | [14] 100 % of control | [15] 108 % of control

CN(C)c1ccc(C=Nc2cccc([N+](=O)[O-])c2)cc1
inactive: [10] 91 % of control | dose: 200.0 mg/kg/injection, schedule: Q01DX001 (ip), vehicle: Klucel (hydroxypropylcellulose) (HPC) 86 % of control | dose: 400.0 mg/kg/injection, schedule: Q01DX001 (ip), vehicle: Klucel (hydroxypropylcellulose) (HPC) 90 % of control

O=C(O)C(=O)c1ccccc1
inactive: dose: 100.0 mg/kg/injection, schedule: Q04DX003 (ip), vehicle: saline 92 % of control | dose: 200.0 mg/kg/injection, schedule: Q04DX003 (ip), vehicle: saline 91 % of control

Cc1ccc(S(=O)(=O)N(SSN(c2ccccc2)S(=O)(=O)c2ccc(C)cc2)c2ccccc2)cc1
inactive: dose: 100.0 mg/kg/injection, schedule: Q04DX002 (ip), vehicle: carboxymethylcellulose (CMC) 95 % of control and 98 % of control | dose: 200.0 mg/kg/injection, schedule: Q04DX002 (ip), vehicle: carboxymethylcellulose (CMC) 95 % of control and 101 % of control | dose: 400.0 mg/kg/injection, schedule: Q04DX002 (ip), vehicle: carboxymethylcellulose (CMC) 95 % of control and 106 % of control

Cc1ccc(-n2c(=S)[nH]c3ccccc3c2=O)cc1F
inactive: [5] 94 % of control | [6] 93 % of control | [7] 89 % of control

Clc1ccc(C(Cl)(Cl)Cl)cc1Cl
inactive: [9] 110 % of control | [16] 103 % of control | [11] 106 % of control | [17] 98 % of control | [18] 106 % of control

COc1c2c(cc3c1OCO3)C13CCN(C2)C1CC(OC)C1OC13 (stereo not given)
inactive: dose: 5.0 mg/kg/injection, schedule: Q01DX001 (ip), vehicle: other 97 % of control | dose: 10.0 mg/kg/injection, schedule: Q01DX001 (ip), vehicle: other 109 % of control | dose: 20.0 mg/kg/injection, schedule: Q01DX001 (ip), vehicle: other 97 % of control | dose: 40.0 mg/kg/injection, schedule: Q01DX001 (ip), vehicle: other 90 % of control | dose: 80.0 mg/kg/injection, schedule: Q01DX001 (ip), vehicle: other 89 % of control

O=C1CCC2(CCC(=O)O2)O1
inactive: [2] 100 % of control | dose: 100.0 mg/kg/injection, schedule: Q01DX009 (ip), vehicle: saline 100 % of control | dose: 200.0 mg/kg/injection, schedule: Q01DX009 (ip), vehicle: saline 92 % of control
